{"source": "patent US6127136A", "about": "“Detection of dioxin-like compounds by detection of transformed Ah receptor/ARNT complex” (Paracelsian, Inc., priority 1996, dated 2000)", "molecular_target": "T1, transformed Ah receptor (Cavia porcellus, UniProt Q6J287)", "T1 construct": "TCDD-transformed receptor captured as heterodimer on DRE-oligonucleotide gel; recombinant ARNT added in some protocols", "T1 sequence (Q6J287 10-846)": "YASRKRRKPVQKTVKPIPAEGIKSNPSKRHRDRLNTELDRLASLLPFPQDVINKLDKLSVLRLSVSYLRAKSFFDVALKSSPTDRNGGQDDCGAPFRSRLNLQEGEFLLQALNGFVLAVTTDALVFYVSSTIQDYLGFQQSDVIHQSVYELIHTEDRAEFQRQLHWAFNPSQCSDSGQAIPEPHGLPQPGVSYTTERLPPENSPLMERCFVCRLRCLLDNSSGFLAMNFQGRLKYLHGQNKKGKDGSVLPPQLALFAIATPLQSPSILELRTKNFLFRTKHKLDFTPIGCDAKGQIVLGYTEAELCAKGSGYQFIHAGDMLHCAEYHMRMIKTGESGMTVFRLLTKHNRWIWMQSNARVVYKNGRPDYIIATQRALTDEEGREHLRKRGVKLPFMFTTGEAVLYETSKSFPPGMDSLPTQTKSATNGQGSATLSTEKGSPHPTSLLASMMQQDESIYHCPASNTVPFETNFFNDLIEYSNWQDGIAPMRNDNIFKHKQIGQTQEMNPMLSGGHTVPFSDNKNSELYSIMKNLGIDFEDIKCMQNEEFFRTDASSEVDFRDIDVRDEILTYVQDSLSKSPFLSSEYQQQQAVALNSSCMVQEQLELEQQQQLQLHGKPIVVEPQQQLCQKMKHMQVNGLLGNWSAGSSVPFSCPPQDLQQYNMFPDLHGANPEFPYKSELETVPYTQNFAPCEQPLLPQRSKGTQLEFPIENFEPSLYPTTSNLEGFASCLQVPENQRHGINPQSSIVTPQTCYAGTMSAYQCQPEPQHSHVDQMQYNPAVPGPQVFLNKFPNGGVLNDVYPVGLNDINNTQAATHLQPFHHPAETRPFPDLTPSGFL", "T1 sequence (Q0WXX3 1-790 partner)": "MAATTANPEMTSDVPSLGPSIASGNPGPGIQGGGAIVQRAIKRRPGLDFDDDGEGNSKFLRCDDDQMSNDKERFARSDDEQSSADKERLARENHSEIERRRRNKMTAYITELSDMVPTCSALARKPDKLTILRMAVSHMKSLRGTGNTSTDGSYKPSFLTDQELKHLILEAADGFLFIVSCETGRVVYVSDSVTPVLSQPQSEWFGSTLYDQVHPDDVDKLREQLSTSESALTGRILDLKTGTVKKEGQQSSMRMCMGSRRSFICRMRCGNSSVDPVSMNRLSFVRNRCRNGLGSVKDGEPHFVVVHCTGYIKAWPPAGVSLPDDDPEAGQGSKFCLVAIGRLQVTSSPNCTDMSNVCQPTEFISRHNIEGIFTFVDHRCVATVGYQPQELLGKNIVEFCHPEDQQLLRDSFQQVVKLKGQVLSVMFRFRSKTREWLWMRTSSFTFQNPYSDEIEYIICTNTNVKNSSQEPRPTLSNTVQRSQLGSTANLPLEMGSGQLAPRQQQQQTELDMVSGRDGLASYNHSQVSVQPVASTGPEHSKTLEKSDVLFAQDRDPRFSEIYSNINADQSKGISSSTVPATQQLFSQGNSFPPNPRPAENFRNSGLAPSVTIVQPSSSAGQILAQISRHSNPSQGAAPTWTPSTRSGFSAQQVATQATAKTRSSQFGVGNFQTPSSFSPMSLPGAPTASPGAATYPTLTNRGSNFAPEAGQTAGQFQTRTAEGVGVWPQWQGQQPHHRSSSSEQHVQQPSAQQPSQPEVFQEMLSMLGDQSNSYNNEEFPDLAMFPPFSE", "experiment": "mini-Ah immunoassay (DRE affinity gel, dot-blot spot density), with or without added recombinant ARNT", "assay_type": "biochemical, guinea pig (male Hartley, hepatic cytosol)", "description": "Male Hartley guinea pigs weighing 300-350 g were obtained from Cornell Research Animal Resources, Cornell University, Ithaca, N.Y. Guinea pigs were anaesthetized and killed with carbon dioxide. Livers were perfused in situ with 100 mL ice-cold perfusion buffer, excised, trimmed of connective tissue, poorly perfused liver and gall bladder and weighed. The liver was minced and five mL of ice-cold HEDG per gram liver were added and the whole homogenized in a 50 mL homogenizer with teflon pestle using at 200 rpm for a total of seven strokes. Crude homogenate was centrifuged at 12,500 RPM in 50 mL tubes in a JA17 rotor in a Beckman J2-MI preparative centifuge at 4 degrees C for 20 minutes.\nProcedure for the mini-Ah Immuno Assay\nPreparation of Buffers: 155 uM TCDD stock was prepared by dissolving 1 mg 2,3,7,8-tetrachloro-dibenzo-p-dioxin (Cambridge Isotope Labs) in 20 mL DMSO (dimethylsulfoxide) overnight. 10 uM working dilution of TCDD was prepared by diluting 0.129 mL of the stock with 1.871 mL DMSO. 4M NaCl/HEDG was prepared by adding 116.88 g sodium chloride to 300 mL HEDG and adjusting the volume to 500 mL with HEDG. 0.3 M NaCl/HEDG was prepared by diluting 1.5 mL 4 M NaCl/HEDG to 20 mL with HEDG 0.6 M NaCl/HEDG was prepared by diluting 3.0 mL 4 M NaCl/HEDG to 20 mL with HEDG TBST was prepared by dissolving 1.18 g Tris-base, 6.35 g Tris-HCl, 8.76 g NaCL, and 2 mL Tween 20 in 800 mL water, adjusting volume to 1000 mL. Blocker was prepared by dissolving 10 g non-fat dry milk (Carnation) in 200 mL TBST. AP development buffer was prepared by dissolving 11 g Tris-base, 1.6 g Tris-HCl, 5.84 g Sodium Chloride, 10.2 g Magnesium Chloride hexahydrate, in 800 mL water and adjusting the volume to 1000 mL. BCIP stock was prepared by dissolving 100 mg BCIP (5-Bromo-4-Chloro-3-Indolyl Phosphate) in 2 mL N,N-Dimethylformamide, aliquoting into 66 uL portions, and freezing at -20 C until use. NBT stock was prepared by dissolving 250 mg NBT (Nitro Blue Tetrazolium) in 25 mL water, aliquoting into 660 uL proportions, and storing at -20 C until use. BCIP/NBT developer was prepared immediately before use by mixing one 66 uL aliquot of BCIP and one 660 uL aliquot of NBT in 20 mL AP development buffer.\nFor a typical mini-Ah immunoassay utilizing 12 samples, 5 mL of Transformed Ah Receptor Affinity Gel slurry described above was pipeted into a 50 mL conical tube. The slurry was washed with 40 mL HEDG and centifuged at 1000 g for 5 min, the supernatant withdrawn and discarded, the pellet washed with 40 mL HEDG, and centrifuged again. After the second centrifugation all but 5 mL of supernatant was withdrawn and the gel thus resuspended in the original volume. 10 mL guinea pig hepatic cytosol was thawed. The thawed cytosol was pooled and then divided into two 5 mL groups and treated with either 5 uL DMSO or 5 uL 10 uM TCDD in DMSO.\nAssembly of transformation mixture:In the preferred embodiment of the mini-Ah immunoassay, each sample was composed of one 1.5 mL microfuge tube with the following sequential additions: 90 uL 4 M NaCl/HEDG, 400 uL Transformed Ah Receptor Affinity Gel slurry and 800 uL cytosol (treated with DMSO or TCDD as described above). The three components described above are the minimum components added at that step of the mini-Ah immunoassay. Any additional materials, such as ARNT, anti-ARNT and anti-Rabbit/alkaline phosphatase conjugate, were sometimes also added at this time as described in the specific examples. After assembly of the samples, the tubes were capped and the samples incubated at room temperature for 2 hours with gentle rocking to allow transformation of the Ah receptor to take place, interaction of transformed Ah receptor and ARNT, and binding of the transformed Ah receptor as a heteromer to the DRE oligonucleotide contained on the Transformed Ah Receptor Affinity Gel.\nIsolation transformed Ah receptor: After the 2 hour incubation the mixtures were pipetted into the empty column barrels and allowed to drain. […]", "note": "Where “and” joins values, the source holds several entries; their conditions need not be identical. Identical values can stand only once."}
{"smiles": "Clc1cc2c(cc1Cl)Oc1cc(Cl)c(Cl)cc1O2", "note": "[TCDD, 2,3,7,8-tetrachlorodibenzo-p-dioxin]", "values": [{"measurement": "spot density, difference TCDD treated (+) minus DMSO treated (-)", "setting": "Example 1, arnt spike 2 ug", "result": 224497}, {"measurement": "spot density, average", "setting": "Example 1, arnt spike 2 ug, TCDD (+), average of two replicates", "result": 303679}, {"measurement": "spot density", "setting": "Example 1, arnt spike 2 ug, TCDD (+), single replicate", "result": "308831 and 298526"}, {"measurement": "spot density, difference TCDD treated (+) minus DMSO treated (-)", "setting": "Example 1, normal protocol, no ARNT added", "result": 49541}, {"measurement": "spot density, average", "setting": "Example 1, normal protocol, no ARNT added, TCDD (+), average of two replicates", "result": 149868}, {"measurement": "spot density", "setting": "Example 1, normal protocol, no ARNT added, TCDD (+), single replicate", "result": "157620 and 142115"}, {"measurement": "spot density, difference TCDD treated (+) minus DMSO treated (-)", "setting": "Example 2, 0.5 ug arnt", "result": 129849}, {"measurement": "spot density, average", "setting": "Example 2, 0.5 ug arnt, TCDD (+), average of two replicates", "result": 174210}, {"measurement": "spot density", "setting": "Example 2, 0.5 ug arnt, TCDD (+), single replicate", "result": "184049 and 164371"}, {"measurement": "spot density, difference TCDD treated (+) minus DMSO treated (-)", "setting": "Example 2, 2.0 ug arnt", "result": 209747}, {"measurement": "spot density, average", "setting": "Example 2, 2.0 ug arnt, TCDD (+), average of two replicates", "result": 270107}, {"measurement": "spot density", "setting": "Example 2, 2.0 ug arnt, TCDD (+), single replicate", "result": "281912 and 258302"}, {"measurement": "density, difference TCDD treated (+) minus DMSO treated (-)", "setting": "Example 3, normal, anti-Ah receptor probe", "result": 77724}, {"measurement": "density, average", "setting": "Example 3, normal, anti-Ah receptor probe, TCDD (+), average of two replicates", "result": 169988}, {"measurement": "density", "setting": "Example 3, normal, probed with anti-Ah receptor/alkaline phosphatase, TCDD (+), single replicate", "result": "177175 and 162801"}]}
